Results on 19 compounds are retold here after patent publication US6545009B1, “Retinoid-related receptor function regulating agent” (Takeda Chemical Industries, Ltd., priority 1998, dated 2003).

`COC(=O)c1ccc(-c2nc(-c3ccc(C(C)C)cc3)cs2)cc1` [Example 87, methyl 4-[4-(4-isopropylphenyl)-2-thiazolyl]benzoate] registered a melting point of 134 to 135 °C.
With `CCOC(=O)c1cccc(-c2nc(-c3ccc(C(C)C)cc3)cs2)c1` [Example 86, ethyl 3-[4-(4-isopropylphenyl)-2-thiazolyl]benzoate] the figure was 91 to 92 °C; with `O=C(O)c1ccc(-c2nc(-c3cccc(OC(F)(F)F)c3)cs2)cc1` [Example 63, 4-[4-(3-trifluoromethoxylphenyl)-2-thiazolyl]benzoic acid], 233 to 234 °C.
`COC(=O)c1ccc(-c2nc(-c3ccc(OC)cc3)co2)cc1` [Example 3, methyl 4-[4-(4-methoxyphenyl)-2-oxazolyl]benzoate] gave a melting point of 200 to 202 °C.
Regarding `O=C(O)c1cccc(-c2nc(-c3ccc(C(F)(F)F)cc3)co2)c1` [Example 27, 3-[4-(4-trifluoromethylphenyl)-2-oxazolyl]benzoic acid], the melting point fell in the range of 206 to 208 °C.
With `CCOC(=O)c1cccc(-c2nc(-c3ccc(C)c(C)c3)cs2)c1` [Example 76, ethyl 3-[4-(3,4-dimethylphenyl)-2-thiazolyl]-benzoate] the figure was 147 to 148 °C; with `COC(=O)c1ccc(-c2nc(-c3ccc(OC(F)F)cc3)cs2)cc1` [Example 28, methyl 4-[4-(4-difluoromethoxyphenyl)-2-thiazolyl]benzoate], 146 to 148 °C; with `COC(=O)c1ccc(-c2nc(-c3ccc(Cl)s3)cs2)cc1` [Example 30, methyl 4-[4-(5-chloro-2-thienyl)-2-thiazolyl]benzoate], 171 to 172 °C.
Then `CCOC(=O)c1ccc(-c2cnc(-c3ccc(C(F)(F)F)cc3)o2)cc1` [Example 107, ethyl 4-[2-(4-trifluoromethylphenyl)-5-oxazolyl]benzoate], with 142 to 143 °C; and `O=C(O)c1ccc(-c2csc(-c3ccc(Cl)cc3)n2)cc1` [compound 10, 4-[2-(4-chlorophenyl)-4-thiazolyl]benzoic acid], with 284 to 285 °C.
Compound `O=C(O)c1ccc(-c2nc(-c3ccc(Cl)s3)co2)cc1` [Example 14, 4-[4-(5-chloro-2-thienyl)-2-oxazolyl]benzoic acid] yielded a melting point of at least 300 °C.
The compound `Cc1ccc(-c2csc(-c3ccc(C(=O)O)cc3)n2)cc1C` [Example 90, 4-[4-(3,4-dimethylphenyl)-2-thiazolyl]benzoic acid] came in with a melting point of 261 to 262 °C.
With `COC(=O)c1cccc(-c2nc(-c3ccc(C(F)(F)F)cc3)cs2)c1` [Example 44, methyl 3-[4-(4-trifluoromethylphenyl)-2-thiazolyl]benzoate] the figure was 142 to 143 °C.
`COC(=O)c1ccc(-c2nc(-c3ccc(C)cc3)cs2)cc1` [Example 33, methyl 4-[4-(4-methylphenyl)-2-thiazolyl]benzoate] displayed a melting point of 185 to 187 °C.
With `Br.CCOC(=O)c1ccc(-c2csc(-c3ccncc3)n2)cc1` [Example 105, ethyl 4-[2-(4-pyridyl)-4-thiazolyl)benzoate hydrobromide] the figure was 247 to 248 °C; with `CCOC(=O)c1ccc(-c2csc(-c3ccc(Cl)cc3)n2)cc1` [Example 103, ethyl 4-[2-(4-chlorophenyl)-4-thiazolyl)benzoate], 105 to 106 °C; with `O=C(O)c1ccc(-c2ncc(-c3ccc(Cl)cc3)s2)cc1` [Example 114, 4-[5-(4-chlorophenyl)-2-thiazolyl]benzoic acid], over 300 °C.
`O=C(O)c1ccc(-c2csc(-c3ccccc3)n2)cc1` [Reference Example 9, 4-(2-phenyl-4-thiazolyl]benzoic acid] showed a melting point of 245 to 248 °C.
For the compound `O=C(O)c1ccc(-c2nc(-c3c(F)c(F)c(F)c(F)c3F)cs2)cc1` [Example 65, 4-[4-(2,3,4,5,6-pentafluorophenyl)-2-thiazolyl]benzoic acid], the melting point is 273 to 274 °C.
